# Measured values published in article PMC8118430, “Utility of novel 2-furanones in synthesis of other heterocyclic compounds having anti-inflammatory activity with dual COX2/LOX inhibition” (Journal of Enzyme Inhibition and Medicinal Chemistry, 2021).
# Like-named read-outs stand apart in the source and are kept apart here.
# Legend:
# [1] = molecular target: T1, 15-LOX (Glycine max, UniProt P08170); assay: Lipoxygenase (15-LOX) inhibition assay (Cayman LOX inhibitor screening kit); assay type: biochemical, soybean; conditions: mean ± SD of three experiments
# T1 construct: purchased Cayman Chemical 760700
# T1 sequence (P08170 1-839): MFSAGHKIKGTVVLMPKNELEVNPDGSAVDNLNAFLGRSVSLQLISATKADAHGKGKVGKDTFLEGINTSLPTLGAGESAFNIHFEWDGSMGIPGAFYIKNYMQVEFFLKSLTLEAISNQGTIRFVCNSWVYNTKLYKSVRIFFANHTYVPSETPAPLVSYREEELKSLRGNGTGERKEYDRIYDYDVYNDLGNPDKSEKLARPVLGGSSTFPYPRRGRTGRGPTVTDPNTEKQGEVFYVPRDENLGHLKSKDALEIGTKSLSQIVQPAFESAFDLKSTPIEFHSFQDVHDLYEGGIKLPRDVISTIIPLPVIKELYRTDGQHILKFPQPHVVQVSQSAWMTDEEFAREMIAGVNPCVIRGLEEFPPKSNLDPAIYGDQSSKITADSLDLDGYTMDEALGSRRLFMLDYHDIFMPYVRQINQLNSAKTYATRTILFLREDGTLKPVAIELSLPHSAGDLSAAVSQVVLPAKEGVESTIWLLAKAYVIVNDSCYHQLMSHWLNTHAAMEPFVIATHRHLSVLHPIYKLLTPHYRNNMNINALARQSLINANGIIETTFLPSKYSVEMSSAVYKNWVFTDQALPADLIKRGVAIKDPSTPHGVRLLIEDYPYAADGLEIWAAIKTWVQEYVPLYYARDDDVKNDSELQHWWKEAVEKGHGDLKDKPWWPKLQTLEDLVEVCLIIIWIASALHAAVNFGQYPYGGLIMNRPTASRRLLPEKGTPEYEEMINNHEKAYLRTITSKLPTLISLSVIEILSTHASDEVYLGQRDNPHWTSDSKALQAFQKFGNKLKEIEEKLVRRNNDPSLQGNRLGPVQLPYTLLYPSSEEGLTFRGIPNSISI
# Description: Briefly, in a 96-well plate, 10 µl of each test compound (dissolved in DMSO) or vehicle were pre-incubated with 90 µl of 15-LOX enzyme. The reaction was started by addition of 10 µl of substrate (AA) and the plate was shaken for at least 5 min. Then, 100 µl of chromogen supplied with the kit was added to each well to stop the enzymatic reaction and develop the colour. The absorbance was measured at 490 nm using microplate reader.
# Therefore, the soybean LOX is most like the mammalian 15-LOX[59].
# [2] = molecular target: T2, TNF-α (Homo sapiens, UniProt P01375); assay: TNFR2: TNF-α [biotinylated] inhibitor screening assay; assay type: binding; conditions: mean ± SD of three experiments
# T2 construct: purchased BPS Bioscience 79756
# Description: The assay was performed in triplicates using TNFR2: TNF-α [biotinylated] […] First, TNFR2 is coated on a 96-well plate. Next, biotinylated TNF-α is incubated with TNFR2 on the plate. Finally, the plate was treated with streptavidin-HRP followed by addition of an HRP substrate to produce chemiluminescence, which can be measured using a chemiluminescence reader.
# [3] = molecular target: T3, COX-1 (Ovis aries, UniProt P05979); assay: Cyclooxygenase COX-1 inhibition assay (Cayman COX inhibitor screening kit, EIA)
# T3 sequence (P05979 25-600): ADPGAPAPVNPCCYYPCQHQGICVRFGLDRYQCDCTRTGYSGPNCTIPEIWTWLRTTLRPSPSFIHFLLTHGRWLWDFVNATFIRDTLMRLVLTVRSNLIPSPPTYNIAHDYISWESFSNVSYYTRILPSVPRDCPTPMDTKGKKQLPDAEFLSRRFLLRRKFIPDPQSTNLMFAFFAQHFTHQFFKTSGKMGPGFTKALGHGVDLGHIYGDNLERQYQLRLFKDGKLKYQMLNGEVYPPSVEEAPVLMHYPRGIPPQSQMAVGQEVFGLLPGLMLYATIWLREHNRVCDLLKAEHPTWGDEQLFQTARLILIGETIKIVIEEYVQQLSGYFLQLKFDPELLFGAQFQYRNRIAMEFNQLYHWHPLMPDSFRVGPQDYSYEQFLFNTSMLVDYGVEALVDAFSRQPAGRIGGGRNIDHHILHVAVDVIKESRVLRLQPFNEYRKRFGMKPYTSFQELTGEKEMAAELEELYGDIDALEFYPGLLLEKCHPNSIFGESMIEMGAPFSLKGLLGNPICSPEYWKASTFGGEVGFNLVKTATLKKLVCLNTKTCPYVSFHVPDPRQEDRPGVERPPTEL
# Description: (§1) Tested compounds were dissolved in DMSO. […] The COX inhibitor screening assay depends on direct measurement of the amount of PG2α produced in the COX reaction. […] Enzyme catalysis was terminated by addition of 50 µl 1 M HCl and 100 µl of the saturated stannous chloride solution. The PGs are quantified by enzyme immunoassay (EIA) at 410 nm.
# (§2) Thus, the newly synthesised compounds were tested for their anti-inflammatory activity against isozymes COX-1 and COX-2, which were determined by the COX-catalysed transformation of AA into PGH2 that was reduced to PGF2α and detected by the EIA[53], as shown in Table 1.
# [4] = molecular target: T4, COX-2 (Homo sapiens, UniProt P35354); assay: Cyclooxygenase COX-2 inhibition assay (Cayman COX inhibitor screening kit, EIA); conditions: for Selectivity indexes (SI): SI = IC50 COX-1/COX-2 ratios
# T4 sequence (P35354 18-604): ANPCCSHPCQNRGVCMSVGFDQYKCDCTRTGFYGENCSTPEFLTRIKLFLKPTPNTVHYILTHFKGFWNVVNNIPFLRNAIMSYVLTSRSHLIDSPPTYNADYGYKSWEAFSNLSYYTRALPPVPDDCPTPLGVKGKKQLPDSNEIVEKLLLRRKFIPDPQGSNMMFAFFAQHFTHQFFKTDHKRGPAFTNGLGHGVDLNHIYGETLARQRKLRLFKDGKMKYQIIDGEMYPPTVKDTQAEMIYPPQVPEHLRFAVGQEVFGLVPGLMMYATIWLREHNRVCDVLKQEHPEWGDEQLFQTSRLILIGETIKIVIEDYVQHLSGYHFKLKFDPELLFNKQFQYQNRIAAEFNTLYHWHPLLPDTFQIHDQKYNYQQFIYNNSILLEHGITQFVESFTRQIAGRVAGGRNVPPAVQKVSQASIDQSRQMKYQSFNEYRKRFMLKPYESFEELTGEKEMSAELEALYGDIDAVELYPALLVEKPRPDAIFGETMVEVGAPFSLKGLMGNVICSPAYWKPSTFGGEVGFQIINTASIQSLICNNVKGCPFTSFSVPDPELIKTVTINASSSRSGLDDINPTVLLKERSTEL
# Description: as §1, §2
# [5] = read-out: COX1 IC50, mean ± SD of three experiments
# [6] = read-out: COX 2 IC50, mean ± SD of three experiments
# T2 sequence (P01375 77-233 limits assumed): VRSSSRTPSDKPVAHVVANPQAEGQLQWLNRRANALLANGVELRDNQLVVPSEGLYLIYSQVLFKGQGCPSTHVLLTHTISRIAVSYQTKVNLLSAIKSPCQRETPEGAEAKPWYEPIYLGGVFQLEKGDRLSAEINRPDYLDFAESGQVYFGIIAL
Compound,IC50 [1] [nM],IC50 [2] [nM],melting point [°C],IC50 [3] [nM],IC50 [4] [nM],Selectivity indexes (SI) [4],"COX-2 inhibition, in words (SAR discussion) ([4]; qualitative statement)","IC50 [3, 5] [nM]","IC50 [4, 6] [nM]",times less active than the reference drug indomethacin as COX-1 inhibitor ([3]; ratio of COX-1 IC50 values)
"O=C(NCc1ccccc1)C(=Cc1cccc([N+](=O)[O-])c1)CC(=O)c1ccc(Cl)c(Cl)c1 [Compound 4b, N-benzyl-2-(3-nitrobenzylidene)-4-(3,4-dichlorophenyl)-4-oxobutanamide]",5870 ± 60,3.53 ± 0.12,124 to 126,13300 ± 150,60,222.17,–,–,–,–
"NNC(=O)C(=Cc1ccccc1[N+](=O)[O-])CC(=O)c1ccc(Cl)c(Cl)c1 [Compound 6a, 4-(3,4-Dichlorophenyl)-2-(2-nitrobenzylidene)-4-oxo-butanehydrazide]",2830 ± 60,5.87 ± 0.12,164 to 166,9670 ± 60,90,107.44,high activity,–,–,–
"O=C1NN(c2ccccc2)C(c2ccc(Cl)c(Cl)c2)=CC1=Cc1cccc([N+](=O)[O-])c1 [Compound 5b, 6-(3,4-Dichlorophenyl)-4-(3-nitrobenzylidene)-1-phenyl-1,4-dihydropyridazin-3(2H)-one]",2430 ± 120,3.27 ± 0.12,> 300,13000 ± 100,40,325.00,–,–,–,–
"CN(C)c1ccc(Cc2cc(-c3ccc(Cl)c(Cl)c3)n[nH]c2=O)cc1 [Compound 7c, 3-(3,4-Dichlorophenyl)-5-[(4-dimethylaminopheny)l-methyl]-1H-pyridazin-6-one]",4670 ± 60,7.57 ± 0.06,–,–,–,69.42,–,8330 ± 60,120 ± 10,–
"CN(C)c1ccc(C=C(CC(=O)c2ccc(Cl)c(Cl)c2)c2n[nH]c(=S)o2)cc1 [Compound 9c, 1-(3,4-Dichlorophenyl)-4-(4-dimethylaminophenyl)-3-(2-thioxo-4,5-dihydro-1,3,4-oxadiazol-5-yl)but-3-en-1-one]",2000 ± 170,6.27 ± 0.15,162 to 164,8930 ± 60,220 ± 10,40.59,–,–,–,–
"O=C1NC(c2ccc(Cl)c(Cl)c2)=CC1=Cc1ccccc1[N+](=O)[O-] [Compound 3a, 5-(3,4-Dichlorophenyl)-3-(2-nitrobenzylidene)-1H-pyrrol-2-one]",2330 ± 120,5.93 ± 0.15,> 300,8370 ± 120,190 ± 10,44.05,–,–,–,–
"O=C1NC(c2ccc(Cl)c(Cl)c2)=CC1=Cc1cccc([N+](=O)[O-])c1 [Compound 3b, 5-(3,4-Dichlorophenyl)-3-(3-nitrobenzylidene)-1H-pyrrol-2-one]",1870 ± 150,8.27 ± 0.12,> 300,6870 ± 120,390 ± 10,17.62,–,–,–,–
"O=C1OC(c2ccc(Cl)c(Cl)c2)=CC1=Cc1ccccc1[N+](=O)[O-] [Compound 2a, 5-(3,4-Dichlorophenyl)3-(2-nitrobenzylidene)-furan-2-one]",5100 ± 100,7.47 ± 0.12,259 to 261,4530 ± 120,350 ± 10,12.94,–,–,–,–
"O=C(NCc1ccccc1)C(=Cc1ccccc1[N+](=O)[O-])CC(=O)c1ccc(Cl)c(Cl)c1 [Compound 4a, N-benzyl-2-(2-nitrobenzylidene)-4-(3,4-dichlorophenyl)-4-oxobutanamide]",5470 ± 120,4.77 ± 0.12,250 to 252,11100 ± 150,50,221.40,–,–,–,–
"CN(C)c1ccc(C=C2C=C(c3ccc(Cl)c(Cl)c3)OC2=O)cc1 [Compound 2c, 5-(3,4-Dichlorophenyl)3-(4-dimethylaminobenzylidene)-furan-2-one]",6130 ± 120,8.2 ± 0.1,204 to 206,3930 ± 60,420 ± 20,9.36,–,–,–,39
"O=C1NN(C(=O)c2ccccc2)C(c2ccc(Cl)c(Cl)c2)=CC1=Cc1ccccc1[N+](=O)[O-] [Compound 8a, 2-Benzoyl-5-(2-nitrobenzylidene)-3-(3,4-dichlorophenyl)-1H-pyridazin-6-one]",2330 ± 510,3.83 ± 1.44,222 to 224,10800 ± 150,70,153.86,–,–,–,–
"O=C1NN(C(=O)c2ccccc2)C(c2ccc(Cl)c(Cl)c2)=CC1=Cc1cccc([N+](=O)[O-])c1 [Compound 8b, 2-Benzoyl-5-(3-nitrobenzylidene)-3-(3,4-dichlorophenyl)-1H-pyridazin-6-one]",2470 ± 60,3.47 ± 0.06,150 to 152,12670 ± 120,40,316.75,–,–,–,–
"O=C(CC(=Cc1cccc([N+](=O)[O-])c1)c1n[nH]c(=S)o1)c1ccc(Cl)c(Cl)c1 [Compound 9b, 1-(3,4-Dichlorophenyl)-4-(3-nitrophenyl)-3-(2-thioxo-4,5-dihydro-1,3,4-oxadiazol-5-yl)but-3-en-1-one]",1630 ± 150,4.33 ± 0.12,–,10400 ± 120,–,–,–,–,–,–
"O=c1[nH]nc(-c2ccc(Cl)c(Cl)c2)cc1Cc1cccc([N+](=O)[O-])c1 [Compound 7b, 3-(3,4-Dichlorophenyl)-5-[(3-nitropheny)l-methyl]-1H-pyridazin-6-one]",5870 ± 60,8.17 ± 0.06,–,–,–,26.68,–,6670 ± 120,250 ± 10,–
"O=c1[nH]nc(-c2ccc(Cl)c(Cl)c2)cc1Cc1ccccc1[N+](=O)[O-] [Compound 7a, 3-(3,4-Dichlorophenyl)-5-[(2-nitropheny)l-methyl]-1H-pyridazin-6-one]",5470 ± 120,8.53 ± 0.12,–,–,–,41.35,–,7030 ± 150,170 ± 10,–
